The values that follow come from patent US9845322B2 (Hoffmann-La Roche Inc., priority 2016, dated 2017).

The test relates to HBsAg secretion in HepG2.2.15 cells. Description: HBsAg assay (chemiluminescence immunoassay of secreted HBsAg in culture supernatant). The note with it: concentration at which HBsAg secretion was reduced by 50% compared to the no drug control, read-out: IC50 (HBsAg assay). The test is classed as cell-based, HBV. In short, it runs like this: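 IC50 taken from dose-response curves as the concentration halving secreted HBsAg relative to DMSO control. Measured by chemiluminescence immunoassay of culture supernatant from constitutively HBV-expressing HepG2.2.15 cells, seeded at 1.5×10^4/well in duplicate and exposed to three-fold serial compound dilutions at 1% final DMSO.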

[1] abbreviates: Hepatitis B virus, HepG2.2.15, HepG2.2.15 cells.

Read-outs that look alike come from different tables or passages of the source.

For `CC1c2cnc(-c3ncccn3)nc2CCN1c1cc(F)c(F)c(OCCCN2CCNC(=O)C2)c1` (centres unmarked) [Example 107, 4-[3-[2,3-difluoro-5-(5-methyl-2-pyrimidin-2-yl-7,8-dihydro-5H-pyrido[4,3-d]pyrimidin-6-yl)phenoxy]propyl]piperazin-2-one], under setting [1], the IC50 came out at 171 nM. `CC1c2cnc(-c3ncccn3)nc2CCN1c1cc(F)c(F)c(OCCCN2CCN(C(=O)OC(C)(C)C)CC2)c1` (centres unmarked) [Example 108, tert-butyl 4-[3-[2,3-difluoro-5-(5-methyl-2-pyrimidin-2-yl-7,8-dihydro-5H-pyrido[4,3-d]pyrimidin-6-yl)phenoxy]propyl]piperazine-1-carboxylate]: the IC50 under setting [1] was 84 nM. Turning to `CC(=O)N1CCN(CCCOc2cc(N3CCc4nc(-c5ncccn5)ncc4C3C)cc(F)c2F)CC1` (centres unmarked) [Example 109, 1-[4-[3-[2,3-difluoro-5-(5-methyl-2-pyrimidin-2-yl-7,8-dihydro-5H-pyrido[4,3-d]pyrimidin-6-yl)phenoxy]propyl]piperazin-1-yl]ethanone], the half-maximal inhibitory concentration (IC50) under setting [1] was determined as 80 nM. Regarding `CC1c2cnc(-c3ncccn3)nc2CCN1c1cc(F)c(F)c(OCCCN2CCN(S(C)(=O)=O)CC2)c1` (centres unmarked) [Example 110, 6-[3,4-difluoro-5-[3-(4-methylsulfonylpiperazin-1-yl)propoxy]phenyl]-5-methyl-2-pyrimidin-2-yl-7,8-dihydro-5H-pyrido[4,3-d]pyrimidine], under setting [1], the IC50 was determined as 79 nM. Take `COc1cc(N2CCc3nc(-c4ncccn4)ncc3C2C)cc(F)c1I` (centres unmarked) [Example 111, 6-(3-fluoro-4-iodo-5-methoxy-phenyl)-5-methyl-2-pyrimidin-2-yl-7,8-dihydro-5H-pyrido[4,3-d]pyrimidine]: the IC50 under setting [1] was found to be 41 nM. Take `COc1cc(N2CCc3nc(-c4ncccn4)ncc3C2C)cc(C(F)(F)F)c1` (centres unmarked) [Example 112, 6-[3-methoxy-5-(trifluoromethyl)phenyl]-5-methyl-2-pyrimidin-2-yl-7,8-dihydro-5H-pyrido[4,3-d]pyrimidine]: the IC50 under setting [1] stood at 84 nM. Same read-out and setting: next, `CC1c2cnc(-c3ncccn3)nc2CCN1c1cc(F)c(F)c(OCCCN2CCNC2=O)c1` (centres unmarked) [Example 113, 1-[3-[2,3-difluoro-5-(5-methyl-2-pyrimidin-2-yl-7,8-dihydro-5H-pyrido[4,3-d]pyrimidin-6-yl)phenoxy]propyl]imidazolidin-2-one]: 94 nM; `CC1c2cnc(-c3ncccn3)nc2CCN1c1cc(F)c(F)c(OCCC2CCOC2)c1` (centres unmarked) [Example 114, 6-[3,4-difluoro-5-(2-tetrahydrofuran-3-ylethoxy)phenyl]-5-methyl-2-pyrimidin-2-yl-7,8-dihydro-5H-pyrido[4,3-d]pyrimidine]: 18 nM; `CC1c2cnc(-c3ncccn3)nc2CCN1c1cc(F)c(F)c(OCCC2CN(C(=O)OC(C)(C)C)C2)c1` (centres unmarked) [Example 115, tert-butyl 3-[2-[2,3-difluoro-5-(5-methyl-2-pyrimidin-2-yl-7,8-dihydro-5H-pyrido[4,3-d]pyrimidin-6-yl)phenoxy]ethyl]azetidine-1-carboxylate]: 12 nM. As for `CC1c2cnc(-c3ncccn3)nc2CCN1c1cc(F)c(F)c(OCCC2CNC2)c1` (centres unmarked) [Example 116, 6-[3-[2-(azetidin-3-yl)ethoxy]-4,5-difluoro-phenyl]-5-methyl-2-pyrimidin-2-yl-7,8-dihydro-5H-pyrido[4,3-d]pyrimidine], under setting [1], the IC50 was 902 nM. With `CC(=O)N1CC(CCOc2cc(N3CCc4nc(-c5ncccn5)ncc4C3C)cc(F)c2F)C1` (centres unmarked) [Example 117, 1-[3-[2-[2,3-difluoro-5-(5-methyl-2-pyrimidin-2-yl-7,8-dihydro-5H-pyrido[4,3-d]pyrimidin-6-yl)phenoxy]ethyl]azetidin-1-yl]ethanone], the IC50 under setting [1] came out at 72 nM. Regarding `CC1c2cnc(-c3ncccn3)nc2CCN1c1cc(F)c(F)c(OCCC2CN(S(C)(=O)=O)C2)c1` (centres unmarked) [Example 118, 6-[3,4-difluoro-5-[2-(1-methylsulfonylazetidin-3-yl)ethoxy]phenyl]-5-methyl-2-pyrimidin-2-yl-7,8-dihydro-5H-pyrido[4,3-d]pyrimidine], the IC50 under setting [1] came to 13 nM.

In the case of `CC1c2cnc(-c3ncccn3)nc2CCN1c1cc(F)c(F)c(OCC2CSC2)c1` (centres unmarked) [Example 119, 6-[3,4-difluoro-5-(thietan-3-ylmethoxy)phenyl]-5-methyl-2-pyrimidin-2-yl-7,8-dihydro-5H-pyrido[4,3-d]pyrimidine], the IC50 under setting [1] was 51 nM. Same read-out and setting: next, `CC1c2cnc(-c3ncccn3)nc2CCN1c1cc(F)c(F)c(OCC2CS(=O)(=O)C2)c1` (centres unmarked) [Example 120, 3-[[2,3-difluoro-5-(5-methyl-2-pyrimidin-2-yl-7,8-dihydro-5H-pyrido[4,3-d]pyrimidin-6-yl)phenoxy]methyl]thietane 1,1-dioxide]: 96 nM.

As to `CC1c2cnc(-c3ncccn3)nc2CCN1c1cc(F)c(F)c(OC2CCOC2)c1` (centres unmarked) [Example 121, 6-(3,4-difluoro-5-tetrahydrofuran-3-yloxy-phenyl)-(5R/S)-methyl-2-pyrimidin-2-yl-7,8-dihydro-5H-pyrido[4,3-d]pyrimidine], the IC50 (HepG2.2.15 cells) came out at 42 nM. With `CC1c2cnc(-c3ncccn3)nc2CCN1c1cc(F)c(F)c(OCC2CCCO2)c1` (centres unmarked) [Example 122, 6-[3,4-difluoro-5-(tetrahydrofuran-2-ylmethoxy)phenyl]-(5R/S)-methyl-2-pyrimidin-2-yl-7,8-dihydro-5H-pyrido[4,3-d]pyrimidine], where the note is “HepG2.2.15 cells”, the IC50 is 16 nM. In the case of `COc1cc(Cl)nc(N2CCc3nc(-c4ncccn4)ncc3C2C)c1` (centres unmarked) [Example 126], the IC50 under setting [1] was determined as 8 nM. On to `COc1cc(F)nc(N2CCc3nc(-c4ncccn4)ncc3C2C)c1` (centres unmarked) [Example 127, 6-(6-Fluoro-4-methoxy-2-pyridyl)-5-methyl-2-pyrimidin-2-yl-7,8-dihydro-5H-pyrido[4,3-d]pyrimidine], for which, where the note is “HepG2.2.15 cells”, the IC50 was 24 nM. Regarding `COc1cc(N2CCc3nc(-c4ncccn4)ncc3C2C)nc(F)c1I` (centres unmarked) [Example 128, 6-(6-fluoro-5-iodo-4-methoxy-2-pyridyl)-5-methyl-2-pyrimidin-2-yl-7,8-dihydro-5H-pyrido[4,3-d]pyrimidine], the IC50 under setting [1] worked out at 5 nM. Regarding `COc1cc(N2CCc3nc(-c4ncccn4)ncc3C2C)cc(F)n1` (centres unmarked) [Example 129, 6-(2-fluoro-6-methoxy-4-pyridyl)-5-methyl-2-pyrimidin-2-yl-7,8-dihydro-5H-pyrido[4,3-d]pyrimidine], the IC50 under setting [1] was 18 nM. With `CC1c2cnc(-c3ncccn3)nc2CCN1c1cc(F)c(F)c(OCC2CN(C(=O)OC(C)(C)C)C2)c1` (centres unmarked) [Example 132, tert-butyl 3-[[2,3-difluoro-5-(5-methyl-2-pyrimidin-2-yl-7,8-dihydro-5H-pyrido[4,3-d]pyrimidin-6-yl)phenoxy]methyl]azetidine-1-carboxylate], under setting [1], the IC50 was 30 nM. With `CC1c2cnc(-c3ncccn3)nc2CCN1c1cc(F)cc(OC(F)(F)F)c1` (centres unmarked) [Example 133, 6-[3-fluoro-5-(trifluoromethoxy)phenyl]-5-methyl-2-pyrimidin-2-yl-7,8-dihydro-5H-pyrido[4,3-d]pyrimidine], the IC50 under setting [1] was 1760 nM.

Consider `Cc1cc(F)cc(N2CCc3nc(-c4ncccn4)ncc3C2C)c1` (centres unmarked) [Example 134, 6-(3-fluoro-5-methyl-phenyl)-5-methyl-2-pyrimidin-2-yl-7,8-dihydro-5H-pyrido[4,3-d]pyrimidine], for which the IC50 under setting [1] stood at 48 nM. Turning to `COc1cc(F)cc(N2CCc3cc(-c4ncccn4)ncc3C2C)c1` (centres unmarked) [Example 135, 2-(3-fluoro-5-methoxy-phenyl)-1-methyl-6-pyrimidin-2-yl-3,4-dihydro-1H-2,7-naphthyridine], the IC50 under setting [1] stood at 15 nM. For the molecule `COc1cc(N2CCc3cc(-c4ncccn4)ncc3C2C)cc(F)c1-c1ccncc1` (centres unmarked) [Example 136, 2-[3-fluoro-5-methoxy-4-(4-pyridyl)phenyl]-1-methyl-6-pyrimidin-2-yl-3,4-dihydro-1H-2,7-naphthyridine], the half-inhibitory concentration (IC50) under setting [1] turned out to be 357 nM.

On to `CC1c2cnc(-c3ncccn3)nc2CCN1c1cc(F)cc(C2CC2)c1` (centres unmarked) [Example 137, 6-(3-cyclopropyl-5-fluoro-phenyl)-5-methyl-2-pyrimidin-2-yl-7,8-dihydro-5H-pyrido[4,3-d]pyrimidine], for which the IC50 under setting [1] was found to be 124 nM. With `COc1cc(Cl)cc(N2CCc3nc(-c4ncccn4)ncc3C2C)n1` (centres unmarked) [Example 140, 6-(4-chloro-6-methoxy-2-pyridyl)-5-methyl-2-pyrimidin-2-yl-7,8-dihydro-5H-pyrido[4,3-d]pyrimidine], the IC50 under setting [1] was found to be 24 nM. As to `COc1cc(N2CCc3nc(-c4ncccn4)ncc3C2C)cc(Cl)n1` (centres unmarked) [Example 141, 6-(2-chloro-6-methoxy-4-pyridyl)-5-methyl-2-pyrimidin-2-yl-7,8-dihydro-5H-pyrido[4,3-d]pyrimidine], the IC50 under setting [1] was 113 nM. Turning to `COc1cc(F)cc(N2CCc3nc(-c4ncccn4)ncc3C2C)n1` (centres unmarked) [Example 142, 6-(4-fluoro-6-methoxy-2-pyridyl)-5-methyl-2-pyrimidin-2-yl-7,8-dihydro-5H-pyrido[4,3-d]pyrimidine], under setting [1], the IC50 turned out to be 40 nM. For `CC1c2cnc(-c3ncccn3)nc2CCN1c1cc(F)cc(OCC(F)F)c1` (centres unmarked) [Example 143, 6-[3-(2,2-difluoroethoxy)-5-fluoro-phenyl]-5-methyl-2-pyrimidin-2-yl-7,8-dihydro-5H-pyrido[4,3-d]pyrimidine], the IC50 under setting [1] was determined as 22 nM. Consider `CC1c2cnc(-c3ncccn3)nc2CCN1c1cc(F)cc(OCC(F)(F)F)c1` (centres unmarked) [Example 144, 6-[3-fluoro-5-(2,2,2-trifluoroethoxy)phenyl]-5-methyl-2-pyrimidin-2-yl-7,8-dihydro-5H-pyrido[4,3-d]pyrimidine], for which, under setting [1], the IC50 worked out at 48 nM. Regarding `CC1c2cnc(-c3ncccn3)nc2CCN1c1cc(F)cc(OCC2CC2)c1` (centres unmarked) [Example 145, 6-[3-(cyclopropylmethoxy)-5-fluoro-phenyl]-5-methyl-2-pyrimidin-2-yl-7,8-dihydro-5H-pyrido[4,3-d]pyrimidine], the IC50 under setting [1] is 14 nM.

As a reminder, the IC50 is the concentration at which inhibition is half-maximal.
